Activity calls are given as the source filed them. No cut-off for these calls is given here.
Tests used:
[1] = molecular target: T1, 2-5A-dependent ribonuclease (Homo sapiens, UniProt Q05823); assay: Activation of human recombinant RNase L endonuclease activity using 6-FAM-UUAUCAAAUUCUUAUUUGCCCCAUUUUUUUGGUUUA-BHQ-1 as substrate assessed as substrate cleavage measured for 50 mins by FRET assay
T1 sequence (Q05823 whole entry): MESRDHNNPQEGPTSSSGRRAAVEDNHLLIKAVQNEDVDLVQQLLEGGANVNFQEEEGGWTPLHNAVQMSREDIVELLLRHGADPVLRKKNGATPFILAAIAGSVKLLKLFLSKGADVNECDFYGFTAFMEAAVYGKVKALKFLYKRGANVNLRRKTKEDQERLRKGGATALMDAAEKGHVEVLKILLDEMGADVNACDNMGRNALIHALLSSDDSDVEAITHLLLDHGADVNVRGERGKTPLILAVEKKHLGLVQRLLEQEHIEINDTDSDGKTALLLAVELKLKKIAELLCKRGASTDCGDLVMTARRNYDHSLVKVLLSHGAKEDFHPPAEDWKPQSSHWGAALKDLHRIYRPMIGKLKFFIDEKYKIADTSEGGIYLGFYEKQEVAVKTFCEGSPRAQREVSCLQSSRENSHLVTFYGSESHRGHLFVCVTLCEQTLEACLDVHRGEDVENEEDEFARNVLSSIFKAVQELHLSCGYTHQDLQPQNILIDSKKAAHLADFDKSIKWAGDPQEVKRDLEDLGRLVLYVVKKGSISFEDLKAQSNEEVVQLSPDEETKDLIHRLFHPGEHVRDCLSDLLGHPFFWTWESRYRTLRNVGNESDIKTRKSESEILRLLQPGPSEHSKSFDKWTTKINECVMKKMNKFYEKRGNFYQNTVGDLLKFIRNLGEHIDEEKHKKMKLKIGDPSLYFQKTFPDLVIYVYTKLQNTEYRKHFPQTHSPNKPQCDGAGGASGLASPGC

[2] = Cytotoxicity against human A549 cells after 72 hrs by Cell Titer-Glo assay; format: cell-based
[3] = test system: Respiratory syncytial virus; assay: Antiviral activity against Respiratory syncytial virus A2 infected in african green monkey Vero cells assessed as reduction of virus-induced cytopathic effect at >= 15 nM pretreated 2 hrs before viral infection measured daily using hucker's crystal violet staining; format: functional, organism-based
Vero [4] = assay: Cytotoxicity against african green monkey Vero cells assessed as cell viability up to 100 uM by Hucker's crystal violet staining; format: cell-based; conditions: chlorocebus sabaeus
Vero [5] = assay: Cytotoxicity against Respiratory syncytial virus A2 infected african green monkey Vero cells at 33.3 uM by Hucker's crystal violet staining; format: cell-based; conditions: chlorocebus sabaeus
[6] = Selectivity index, ratio of CC50 for human A549 cells to EC50 for Influenza A virus (A/WSN/1933(H1N1)); format: toxicity, cell-based; conditions: read-out: Ratio CC50/EC50
Influenza A virus = assay: Antiviral activity against Influenza A virus (A/WSN/1933(H1N1)) infected in human A549 cells assessed as reduction of viral RNA level my measuring luminescence after 72 hrs by RT-PCR analysis; format: functional, organism-based; conditions: A549, 72 h

Row | Structure (SMILES) | EC50 [1] | CC50 at 72 h [2] | Activity [3] | Activity (Vero [4]) | Activity (Vero [5]) | selectivity ratio [6] | EC50 (Influenza A virus)
1 | CC(C)(C)C(=O)OCO[C@H]1[C@@H](O)[C@H](n2cnc3ncnc(N)c32)O[C@@H]1COP(=O)(O)O[C@@H]1[C@H](OCOC(=O)C(C)(C)C)[C@@H](COP(=O)(O)O[C@@H]2[C@H](OCOC(=O)C(C)(C)C)[C@@H](COP(=O)(O)O[C@@H]3[C@H](OCOC(=O)C(C)(C)C)[C@@H](COP(=O)(O)OP(=O)(O)OP(=O)(O)O)O[C@H]3n3cnc4ncnc(N)c43)O[C@H]2n2cnc3ncnc(N)c32)O[C@H]1n1cnc2ncnc(N)c21 | 241 nM | – | – | – | – | – | –
2 | Nc1ncnc2ncn([C@@H]3O[C@H](COP(=O)(O)O[C@@H]4[C@H](O)[C@@H](COP(=O)(O)O[C@@H]5[C@H](O)[C@@H](COP(=O)(O)O[C@@H]6[C@H](O)[C@@H](COP(=O)(O)OP(=O)(O)OP(=O)(O)O)O[C@H]6n6cnc7ncnc(N)c76)O[C@H]5n5cnc6ncnc(N)c65)O[C@H]4n4cnc5ncnc(N)c54)[C@@H](O)[C@H]3O)c12 | 6.1 nM | – | – | – | – | – | –
3 | CC(C)(C)C(=O)OCO[C@H]1[C@@H](O)[C@H](n2cnc3ncnc(N)c32)O[C@@H]1COP(=O)(O)O[C@@H]1[C@H](OCOC(=O)C(C)(C)C)[C@@H](COP(=O)(O)O[C@@H]2[C@H](OCOC(=O)C(C)(C)C)[C@@H](COP(=O)(O)OP(=O)(O)OP(=O)(O)O)O[C@H]2n2cnc3ncnc(N)c32)O[C@H]1n1cnc2ncnc(N)c21 | 19.1 nM | 47000 nM | Active | Non-toxic | Toxic | 3 | 14600 nM

From ChEMBL document CHEMBL2413068, “Solid-phase synthesis of 5'-triphosphate 2'-5'-oligoadenylates analogs with 3'-O-biolabile groups and their evaluation as RNase L activators and antiviral drugs” (Bioorg Med Chem, 2013)
